# Data taken from patent US9271943B2, “Arsenic compound solution and albumin nanoparticle and lyophilized preparation entrapping arsenic compound prepared using same” (ZHEJIANG CHINESE MEDICAL UNIVERSITY, priority 2011, dated 2016).
# Tests used:
# [1] = test system: human malignant B cell lymphoma cell line Raji cells; conditions: Raji cells 2.0×10^5/ml, 0.5˜2.0 μmol/L As2O3, 24, 48, 72 hours; cited from earlier work
# [2] = test system: human T-cell lymphoma cell line jurkat cells; test: Cell apoptosis by AnnexinV/PI double staining flow cytometry; assay type: cell-based; conditions: for Apoptotic rate / Early apoptotic rate / Early apoptotic rate + Apoptotic rate / Survival rate: jurkat cells, treated for 44 hours
# Procedure: The human T-cell lymphoma cell line jurkat cells in exponential growth phase are inoculated into a 6-well plate and cultured; 3 ml of jurkat cells with a cell density of 2χ10^5/ml are inoculated into each well, and the 6-well plate is placed in a 37° C., 5% CO2 incubator. After being cultured for 4 hours, […], and the arsenic compound solutions with different final As2O3 concentrations are prepared as follows: the arsenic compound solution obtained in Example 1 is first diluted with deionized water to 80 μg/ml, and then diluted to the desired concentration with 1640 culture fluid. The control group is treated with an equivalent volume of 1640 culture fluid. After being treated for 44 hours, jurkat cells in the experimental and control groups with a cell density of 1χ10^6/ml are collected, and apoptosis is studied by AnnexinV/PI double staining flow cytometry.)
# The cells in the experimental and control groups with a density of 1χ10^6 jurkat cells/ml are respectively collected, washed twice with PBS, and subjected to centrifugation at 1000 r/min for 5 min, and the supernatant is discarded. Each 100 μl of the cell suspension is mixed with 5 μL Annexin-V, and then mixed with 2 μL of propidium iodide (PI). The mixtures are incubated at room temperature and dark conditions for 15 min, then mixed with 400 μl of 1χAnnexin-V binding buffer after incubation, and placed in an ice water bath. Meanwhile, the flow cytometry instrument is subjected to regular correct, besides, the normal cells in the control group are collected to prepare positive control and negative control for dead cells and survival apoptotic cells to correct the instrument, so that the instrument has more precise control threshold for different characteristic samples. Then, the stained cells were detected by flow cytometry; and similar results are obtained by experiment repeated: […]
# [3] = test system: human T-cell lymphoma cell line jurkat cells; conditions: jurkat cells 2.0×10^5/ml, As2O3 0.5, 1.0, 2.0, 4.0 μmol/L; cited from earlier work
# [4] = test system: human B lymphoma cell line Daudi cells; test: Trypan blue count of survival and dead Daudi cells; assay type: cell-based; conditions: for Death rate / the number of survival cells: Daudi cells
# Procedure: (§1) Human lymphoma cell line cells are cultured in RPMI 1640 culture medium containing 10% new-born calf serum, placed in a 5% CO2 incubator, and cultured at 37° C. with saturated humidity. The medium is changed every 1-2 days. When the cells grow well, the drug is applied to the cells.
# The growing well human B lymphoma cell line Daudi cells are cultured in a 24-well plate; each well is inoculated with 1 ml of the cell culture with a cell density of 1.5χ10^5/ml, and they are divided into experimental and control groups. […], the cells in each group are treated with the arsenic compound solution with respective concentration in terms of As2O3 added, for example, the cells in 0.8 μg/ml As2O3 group are treated with 0.8 μg/ml arsenic compound solution, and the arsenic compound solutions with different concentration are prepared by the following method: the arsenic compound solution obtained in Example 1 is first diluted with deionized water to 80 μg/ml, and then diluted to the desired concentration with 1640 culture fluid to obtain arsenic compound solutions with different concentration. The control group is added with a equal volume of culture fluid. The 24-well plate is placed in a 5% CO2 incubator, the cells are cultured at 37° C. and saturated humidity for a predetermined time, and then detected correspondingly. The cell suspensions are stained by physiological saline solution of 0.3% trypan blue for counting survival, dead cells; and the results are shown in Table 2: […]
# [5] = test system: human T lymphoma cell lines jurkat cell; test: Mitochondrial membrane potential, JC-1 fluorescent probe; assay type: cell-based
# Text: Beyotime mitochondrial membrane potential detection kit (JC-1) is used; after the cells have been labeled with the fluorescent probe, they can be observed with a fluorescence microscope using conventional settings for observing red and green fluorescence, and photographed.
# Measurement principle: The JC-1 fluorescent probe is used to detect mitochondrial potential; when the mitochondrial membrane potential is high, JC-1 aggregates in the mitochondrial matrix to form a polymer, which can produce red fluorescence; when the mitochondrial membrane potential is low, JC-1 can not aggregate in the mitochondrial matrix or the aggregation decreases, in this case, JC-1 exists in monomeric form and generates green fluorescence.
# 100 μl of suspension cultured cell liquid is centrifugalized and washed to obtain a sample. The sample is made into smears and observed by fluorescence microscopy, and three pictures are taken respectively by using conventional filter, red fluorescence, and green fluorescence sets in the same field of view. […]
# [6] = test system: human T cell lymphoma cell line jurkat cells; test: Detection of apoptotic bodies by light microscopy; assay type: cell-based; conditions: 0.8 μg/ml As2O3, 24 h, FIG. 12B
# Procedure: Human B lymphoma cell line Daudi cells and human T lymphoma cell line jurkat cells in the control group and As2O3-treated group ([…]) which have been cultured for 24 h are collected to prepare smears, Wright-Giemsa stained, and observed under a light microscope to determine the morphological changes of cells.
# 1) apoptotic bodies: human B lymphoma cell line Daudi cells and human T-cell lymphoma cell line jurkat cells in the control group and in the As2O3-treated group which have been cultured or treated for 24 h are collected to prepare smears, subjected to the detection of apoptotic bodies and photographed. The results are shown in FIGS. 12A and 12B; FIG. 12A is a light microscopy image of apoptotic bodies of human T cell lymphoma cell line jurkat cells in the control group; and FIG. 12B is a light microscopy image of apoptotic bodies of human T cell lymphoma cell line jurkat cells treated with […] As2O3, and the […] As2O3 is prepared as follows: the arsenic compound solution obtained in Example 1 is first diluted with deionized water to 80 μg/ml, and then diluted to […] with 1640 culture fluid.
# [7] = test system: human T-cell lymphoma cell line jurkat cells; test: Trypan blue count of survival and dead jurkat cells; assay type: cell-based; conditions: for effect on proliferation / cell growth of jurkat cells: 0.2-0.8 μg/ml, 24, 48, 72 h; for Death rate / the number of survival cells / total number of the cells: jurkat cells
# Procedure: as §1
# The human T-cell lymphoma cell line jurkat cells in exponential growth phase are inoculated into a 24-well plate and cultured; 1 ml of jurkat cells with a cell density of 2χ10^5/ml are inoculated into each well, and the 24-well plate is placed in a 37° C., 5% CO2 incubator. Jurkat cells are treated with the arsenic compound solutions with different final As2O3 concentrations of 0, 0.2, 0.4, 0.8 μg/ml for 24, 48, 72 hours, and the arsenic compound solutions with different final As2O3 concentrations are prepared as follows: the arsenic compound solution obtained in Example 1 is first diluted with deionized water to 80 μg/ml, and then diluted to the desired concentration with 1640 culture fluid. The treated cell suspensions are stained with physiological saline solution of 0.3% trypan blue for determining survival, dead cell count, and the results shown in Table 3: […]
substance,measurement,setting,value
arsenic trioxide [As2O3],effect on cell growth (number of active cells),[1],inhibited cell growth in a dose dependent manner
same,relation of jurkat cell apoptotic rate to concentration,"[2]; R=0.997 (P<0.01), dose-dependent",positively correlated with the concentration
same,Apoptotic rate,[2]; As2O3 0.2 μg/ml,0.7%
same,Early apoptotic rate,[2]; As2O3 0.2 μg/ml,6.5%
same,Early apoptotic rate + Apoptotic rate,[2]; As2O3 0.2 μg/ml,7.2%
same,Survival rate,[2]; As2O3 0.2 μg/ml,92.8%
same,Apoptotic rate,[2]; As2O3 0.4 μg/ml,1.4%
same,Early apoptotic rate,[2]; As2O3 0.4 μg/ml,14.1%
same,Early apoptotic rate + Apoptotic rate,[2]; As2O3 0.4 μg/ml,15.5%
same,Survival rate,[2]; As2O3 0.4 μg/ml,84.5%
same,Apoptotic rate,[2]; As2O3 0.8 μg/ml,5.0%
same,Early apoptotic rate,[2]; As2O3 0.8 μg/ml,26.1%
same,Early apoptotic rate + Apoptotic rate,[2]; As2O3 0.8 μg/ml,31.0%
same,Survival rate,[2]; As2O3 0.8 μg/ml,69.0%
same,Apoptotic rate,[2]; As2O3 1.6 μg/ml,15.8%
same,Early apoptotic rate,[2]; As2O3 1.6 μg/ml,50.8%
same,Early apoptotic rate + Apoptotic rate,[2]; As2O3 1.6 μg/ml,66.6%
same,Survival rate,[2]; As2O3 1.6 μg/ml,33.4%
same,effect on cell growth,[3],did not inhibit cell growth
same,effect on cell viability and growth of Daudi cells,"[4]; 0.1-0.8 μg/ml, 20 h and 68 h, dose dependence",significantly reduce the cell viability
same,Death rate,"[4]; As2O3 0.1 μg/ml, 20 h",33%
same,the number of survival cells,"[4]; As2O3 0.1 μg/ml, 20 h",1.40 10^5/ml
same,Death rate,"[4]; As2O3 0.1 μg/ml, 68 h",66%
same,the number of survival cells,"[4]; As2O3 0.1 μg/ml, 68 h",1.24 10^5/ml
same,Death rate,"[4]; As2O3 0.2 μg/ml, 20 h",44%
same,the number of survival cells,"[4]; As2O3 0.2 μg/ml, 20 h",1.27 10^5/ml
same,Death rate,"[4]; As2O3 0.2 μg/ml, 68 h",75%
same,the number of survival cells,"[4]; As2O3 0.2 μg/ml, 68 h",0.77 10^5/ml
same,Death rate,"[4]; As2O3 0.4 μg/ml, 20 h",56%
same,the number of survival cells,"[4]; As2O3 0.4 μg/ml, 20 h",0.99 10^5/ml
same,Death rate,"[4]; As2O3 0.4 μg/ml, 68 h",88%
same,the number of survival cells,"[4]; As2O3 0.4 μg/ml, 68 h",0.30 10^5/ml
same,Death rate,"[4]; As2O3 0.8 μg/ml, 20 h",68%
same,the number of survival cells,"[4]; As2O3 0.8 μg/ml, 20 h",0.58 10^5/ml
same,Death rate,"[4]; As2O3 0.8 μg/ml, 68 h",98%
same,the number of survival cells,"[4]; As2O3 0.8 μg/ml, 68 h",0.06 10^5/ml
same,sensitivity of Daudi cells to As2O3-induced cell death relative to jurkat cells,[4]; comparison of Table 2 with Table 3,more sensitive
same,number of the cells and red fluorescence intensity of JC-1 in the mitochondria,[5]; 0.4 μg/m As2O3 treated group compared with control group,have decreased significantly
same,number of the cells and red fluorescence intensity of JC-1 in the cells,[5]; 0.8 As2O3 treated group compared with 0.4 μg/m group,have also decreased significantly
same,"morphological changes, apoptotic bodies",[6],"nuclear fragmentation, cellular debris and apoptotic bodies appear"
same,effect on proliferation / cell growth of jurkat cells,[7],can inhibit cell growth
same,effect on proliferation / cell growth of jurkat cells,[7]; listed as arsenic compound,significant inhibitory effect
same,Death rate,"[7]; As2O3 0.2 μg/ml, 24 h",5.2%
same,the number of survival cells,"[7]; As2O3 0.2 μg/ml, 24 h",7.56 10^5/ml
same,total number of the cells,"[7]; As2O3 0.2 μg/ml, 24 h",7.98 10^5/ml
same,Death rate,"[7]; As2O3 0.2 μg/ml, 48 h",16%
same,the number of survival cells,"[7]; As2O3 0.2 μg/ml, 48 h",10.29 10^5/ml
same,total number of the cells,"[7]; As2O3 0.2 μg/ml, 48 h",12.18 10^5/ml
same,Death rate,"[7]; As2O3 0.2 μg/ml, 72 h",46.1%
same,the number of survival cells,"[7]; As2O3 0.2 μg/ml, 72 h",4.95 10^5/ml
same,total number of the cells,"[7]; As2O3 0.2 μg/ml, 72 h",9.19 10^5/ml
same,Death rate,"[7]; As2O3 0.4 μg/ml, 24 h",25.9%
same,the number of survival cells,"[7]; As2O3 0.4 μg/ml, 24 h",4.87 10^5/ml
same,total number of the cells,"[7]; As2O3 0.4 μg/ml, 24 h",6.57 10^5/ml
same,Death rate,"[7]; As2O3 0.4 μg/ml, 48 h",34%
same,the number of survival cells,"[7]; As2O3 0.4 μg/ml, 48 h",5.12 10^5/ml
same,total number of the cells,"[7]; As2O3 0.4 μg/ml, 48 h",7.73 10^5/ml
same,Death rate,"[7]; As2O3 0.4 μg/ml, 72 h",50.9%
same,the number of survival cells,"[7]; As2O3 0.4 μg/ml, 72 h",3.66 10^5/ml
same,total number of the cells,"[7]; As2O3 0.4 μg/ml, 72 h",7.45 10^5/ml
same,Death rate,"[7]; As2O3 0.8 μg/ml, 24 h",47.3%
same,the number of survival cells,"[7]; As2O3 0.8 μg/ml, 24 h",2.92 10^5/ml
same,total number of the cells,"[7]; As2O3 0.8 μg/ml, 24 h",5.53 10^5/ml
same,Death rate,"[7]; As2O3 0.8 μg/ml, 48 h",55%
same,the number of survival cells,"[7]; As2O3 0.8 μg/ml, 48 h",2.5 10^5/ml
same,total number of the cells,"[7]; As2O3 0.8 μg/ml, 48 h",5.61 10^5/ml
same,Death rate,"[7]; As2O3 0.8 μg/ml, 72 h",69.7%
same,the number of survival cells,"[7]; As2O3 0.8 μg/ml, 72 h",1.84 10^5/ml
same,total number of the cells,"[7]; As2O3 0.8 μg/ml, 72 h",6.08 10^5/ml
